We go through 15 compounds from patent US9040663B2, “Melanocortin receptor-specific peptides” (AstraZeneca AB, priority 2009, dated 2015).

For experiment [1], the target named is T1, hMC4-R (Homo sapiens (Human), UniProt P32245). Description: Competitive inhibition binding assay using [I125]-NDP-α-MSH, hMC4-R. To be noted: membranes of HEK-293 cells expressing recombinant hMC4-R, read-out: MC4-R Ki. The method, then:
7.1 Competitive Inhibition Assay using [I^125]-NDP-α-MSH.
A competitive inhibition binding assay was performed for exemplified peptides according to the invention using membrane homogenates prepared from HEK-293 cells that express recombinant hMC4-R, hMC3-R, or hMC5-R, and from B-16 mouse melanoma cells (containing endogenous MC1-R). In some instances, HEK-293 cells that express recombinant hMC1-R were employed. Assays were performed in 96 well GF/B Millipore multiscreen filtration plates (MAFB NOB10) pre-coated with 0.5% bovine serum albumin (Fraction V). Membrane homogenates were incubated with 0.2 nM (for hMC4-R) 0.4 nM (for MC3-R and MC5-R) or 0.1 nM (for mouse B16 MC1-R or hMC1-R) [I^125]-NDP-α-MSH (Perkin Elmer) and increasing concentrations of test peptides of the present invention in buffer containing 25 mM HEPES buffer (pH 7.5) with 100 mM NaCl, 2 mM CaCl2, 2 mM MgCl2, 0.3 mM 1,10-phenanthroline, and 0.2% bovine serum albumin. After incubation for 60 minutes at 37° C., the assay mixture was filtered and the membranes washed three times with ice-cold buffer. Filters were dried and counted in a gamma counter for bound radioactivity. […] Maximal specific binding (100%) was defined as the difference in radioactivity (cpm) bound to cell membranes in the absence and presence of 1 μM NDP-α-MSH. […] Each assay was conducted in triplicate and the actual mean values are described, with results less than 0% reported as 0%. Ki values for test peptides of the present invention were determined using Graph-Pad Prism® curve-fitting software.

For experiment [2], the target named is T1, hMC4-R. Description: High and low density hMC4-R functional assay (cAMP, HEK293-T-REx-MC4-R cells). Particulars: for Emax: NDP-α-MSH = 100%, read-out: Intrinsic Activity (%). The class given is cell-based. The protocol: The cells were then dispensed into 96-well plates (BD 353916) in 198 μL (about 5×10^4) cells/well and incubated for 10 minutes at 37° C. The compound to be tested was diluted with DMSO to a final concentration of 1 mM. […] 120 μL of the 1 mM compound stock was pipetted in the second column on the plate. […] All assay samples were run in duplicate (i.e. each sample was in two low dox and two high dox plates, respectively). The plates were gently shaken and incubated for 15 minutes at 37° C.

[3] abbreviates: 0.1 ng/mL Doxycycline (low density hMC4-R system).
[4] abbreviates: 10 ng/mL Doxycycline (high density hMC4-R system).

The structures appear in SMILES notation. Like-named read-outs stand apart in the source and are kept apart here.

T1 sequence (P32245 whole entry): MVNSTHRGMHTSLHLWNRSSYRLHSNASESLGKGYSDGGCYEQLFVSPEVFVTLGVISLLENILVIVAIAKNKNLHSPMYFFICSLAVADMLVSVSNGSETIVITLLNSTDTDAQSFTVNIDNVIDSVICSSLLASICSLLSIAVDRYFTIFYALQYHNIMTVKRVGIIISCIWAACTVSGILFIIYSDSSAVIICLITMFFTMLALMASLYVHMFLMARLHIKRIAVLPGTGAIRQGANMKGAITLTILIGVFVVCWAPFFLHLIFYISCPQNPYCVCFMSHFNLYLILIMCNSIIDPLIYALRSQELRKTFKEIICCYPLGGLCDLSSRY

For orientation: Ki means the dissociation constant of the complex between target and ligand, obtained from inhibition or displacement. A word on the EC50: it is the concentration that produces a half-maximal response. Higher therefore signals a less potent agent. `CC(=O)N[C@@H](CCCNC(=N)N)C(=O)N[C@H]1CCC(=O)NCCC[C@@H](C(N)=O)NC(=O)[C@H](Cc2c[nH]c3ccccc23)NC(=O)[C@H](CCCNC(=N)N)NC(=O)[C@@H](Cc2cccc(Cl)c2)NC(=O)[C@H](CCCN)NC1=O` [Example 101, Ac-Arg-cyclo(Glu-Orn-D-Phe(3-Cl)-Arg-Trp-Orn)-NH2]: the inhibition constant Ki in experiment [1] was determined as 1 nM. Besides, in experiment [2] (setting [3]), the EC50 stood at 0.95 nM and the Emax amounted to 36%. For the same compound, in experiment [2] (setting [4]), a half-maximal response (EC50) required 0.14 nM and the Emax was found to be 93%.

With `CC(=O)N[C@@H](CCCNC(=N)N)C(=O)N[C@H]1CCC(=O)NCCC[C@@H](C(N)=O)NC(=O)[C@H](Cc2c[nH]c3ccccc23)NC(=O)[C@H](CCCNC(=N)N)NC(=O)[C@@H](Cc2cc(F)c(F)c(F)c2)NC(=O)[C@H](CCN)NC1=O` [Example 27, Ac-Arg-cyclo(Glu-Dab-D-Phe(3,4,5-triF)-Arg-Trp-Orn)-NH2], in experiment [1], the Ki was determined as 0.667 nM. In experiment [2] (setting [3]), the response was half-maximal at 0.7 nM (EC50) and the Emax worked out at 37%. Further, in experiment [2] (setting [4]), the response was half-maximal at 0.33 nM (EC50) and the Emax was determined as 97%.

Take `CC(=O)N[C@@H](CCCNC(=N)N)C(=O)N[C@H]1CCC(=O)NCCC[C@@H](C(N)=O)NC(=O)[C@H](Cc2c[nH]c3ccccc23)NC(=O)[C@H](CCCNC(=N)N)NC(=O)[C@@H](Cc2ccc(C)cc2C)NC(=O)[C@H](CCN)NC1=O` [Example 21, Ac-Arg-cyclo(Glu-Dab-D-Phe(2,4-diMe)-Arg-Trp-Orn)-NH2]: the Ki in experiment [1] is 0.085 nM. Besides, the Emax in experiment [2] (setting [3]) came to 8%. In experiment [2] (setting [4]), the EC50 worked out at 0.5 nM and the Emax worked out at 97%.

Turning to `CC(=O)N[C@@H](CCCNC(=N)N)C(=O)N[C@H]1CCC(=O)NCCC[C@@H](C(N)=O)NC(=O)[C@H](Cc2c[nH]c3ccccc23)NC(=O)[C@H](CCCNC(=N)N)NC(=O)[C@@H](Cc2ccc(C(C)(C)C)cc2)NC(=O)[C@H](CCN)NC1=O` [Example 30, Ac-Arg-cyclo(Glu-Dab-D-Phe(4-tBu)-Arg-Trp-Orn)-NH2], the Ki in experiment [1] amounted to 4 nM. For the same compound, the Emax in experiment [2] (setting [3]) is 2%. Also, in experiment [2] (setting [4]), the EC50 turned out to be 25 nM and the Emax came out at 9%.

Take `CC(=O)N[C@@H](CCCNC(=N)N)C(=O)N[C@H]1CCC(=O)NCCC[C@@H](C(N)=O)NC(=O)[C@H](Cc2c[nH]c3ccccc23)NC(=O)[C@H](CCCNC(=N)N)NC(=O)[C@@H](Cc2ccccc2F)NC(=O)[C@H](CCC(N)=O)NC1=O` [Example 59, Ac-Arg-cyclo(Glu-Gln-D-Phe(2-F)-Arg-Trp-Orn)-NH2]: the Ki in experiment [1] was determined as 7 nM. For the same compound, the EC50 in experiment [2] (setting [3]) is 0.6 nM; in experiment [2] (setting [4]), 0.1 nM. The Emax in experiment [2] (setting [3]) is 90%; in experiment [2] (setting [4]), 98%.

For the compound `CC(=O)N[C@@H](CCCNC(=N)N)C(=O)N[C@H]1CCC(=O)NCCC[C@@H](C(N)=O)NC(=O)[C@H](Cc2c[nH]c3ccccc23)NC(=O)[C@H](CCCNC(=N)N)NC(=O)[C@@H](Cc2cccc(Cl)c2)NC(=O)[C@H](CCCNC(N)=O)NC1=O` [Example 99, Ac-Arg-cyclo(Glu-Arg-D-Phe(3-Cl)-Arg-Trp-Orn)-NH2], in experiment [1], the Ki worked out at 0.5 nM. Besides, in experiment [2] (setting [3]), the EC50 worked out at 0.7 nM and the Emax is 32%. In experiment [2] (setting [4]), the half-maximal effective concentration (EC50) turned out to be 0.14 nM and the Emax worked out at 94%.

As to `CC(=O)N[C@@H](CCCNC(=N)N)C(=O)N[C@H]1CCC(=O)NCCC[C@@H](C(N)=O)NC(=O)[C@H](Cc2c[nH]c3ccccc23)NC(=O)[C@H](CCCNC(=N)N)NC(=O)[C@@H](Cc2ccccc2C#N)NC(=O)[C@H](CCN)NC1=O` [Example 12, Ac-Arg-cyclo(Glu-Dab-D-Phe(2-CN)-Arg-Trp-Orn)-NH2], in experiment [1], the Ki stood at 45 nM. Besides, in experiment [2] (setting [3]), the EC50 worked out at 34 nM and the Emax turned out to be 64%. Besides, in experiment [2] (setting [4]), a half-maximal response (EC50) required 0.5 nM and the Emax is 97%.

As for `CC(=O)N[C@@H](CCCNC(=N)N)C(=O)N[C@H]1CCC(=O)NCCC[C@@H](C(N)=O)NC(=O)[C@H](Cc2c[nH]c3ccccc23)NC(=O)[C@H](CCCNC(=N)N)NC(=O)[C@@H](Cc2ccccc2Cl)NC(=O)[C@@H]2CCCN2C1=O` [Example 88, Ac-Arg-cyclo(Glu-Pro-D-Phe(2-Cl)-Arg-Trp-Orn)-NH2], the Ki in experiment [1] worked out at 5 nM. Besides, in experiment [2] (setting [3]), the EC50 was determined as 3 nM and the Emax was determined as 15%. Also, in experiment [2] (setting [4]), the response was half-maximal at 0.35 nM (EC50) and the Emax was determined as 89%.

Consider `CC(=O)N[C@@H](CCCNC(=N)N)C(=O)N[C@H]1CCC(=O)NCCC[C@@H](C(N)=O)NC(=O)[C@H](Cc2c[nH]c3ccccc23)NC(=O)[C@H](CCCNC(=N)N)NC(=O)[C@@H](Cc2cc(F)c(F)c(F)c2)NC(=O)[C@H](CC(N)=O)NC1=O` [Example 95, Ac-Arg-cyclo(Glu-Asn-D-Phe(3,4,5-triF)-Arg-Trp-Orn)-NH2], for which the Ki in experiment [1] is 3 nM. In addition, in experiment [2] (setting [3]), the concentration for a half-maximal effect (EC50) worked out at 1 nM and the Emax turned out to be 42%. Besides, in experiment [2] (setting [4]), the 50% effective concentration (EC50) was 0.125 nM and the Emax was 100%.

As to `CC(=O)N[C@@H](CCCNC(=N)N)C(=O)N[C@H]1CCCNC(=O)CC[C@@H](C(N)=O)NC(=O)[C@H](Cc2c[nH]c3ccccc23)NC(=O)[C@H](CCCNC(=N)N)NC(=O)[C@@H](Cc2cc(F)c(F)c(F)c2)NC(=O)[C@H](CC(N)=O)NC1=O` [Example 96, Ac-Arg-cyclo(Orn-Asn-D-Phe(3,4,5-triF)-Arg-Trp-Glu)-NH2], the inhibitory constant (Ki) in experiment [1] came out at 2 nM. Further, in experiment [2] (setting [3]), the EC50 was 2 nM and the Emax worked out at 24%. In experiment [2] (setting [4]), it took 0.235 nM to reach a half-maximal effect (EC50) and the Emax is 100%.

On to `CC(=O)N[C@@H](CCCNC(=N)N)C(=O)N[C@H]1CCCNC(=O)CC[C@@H](C(N)=O)NC(=O)[C@H](Cc2c[nH]c3ccccc23)NC(=O)[C@H](CCCNC(=N)N)NC(=O)[C@@H](Cc2ccc(F)cc2)NC(=O)[C@H](CC(N)=O)NC1=O` [Example 70, Ac-Arg-cyclo(Orn-Asn-D-Phe(4-F)-Arg-Trp-Glu)-NH2], for which the Ki in experiment [1] is 3 nM. For the same compound, in experiment [2] (setting [3]), the EC50 stood at 0.4 nM and the Emax was found to be 64%. Further, in experiment [2] (setting [4]), the concentration for a half-maximal effect (EC50) worked out at 0.1 nM and the Emax stood at 91%.

Regarding `COc1ccc(C[C@H]2NC(=O)[C@H](CCN)NC(=O)[C@@H](NC(=O)[C@H](CCCNC(=N)N)NC(C)=O)CCC(=O)NCCC[C@@H](C(N)=O)NC(=O)[C@H](Cc3c[nH]c4ccccc34)NC(=O)[C@H](CCCNC(=N)N)NC2=O)cc1OC` [Example 25, Ac-Arg-cyclo(Glu-Dab-D-Phe(3,4-diOMe)-Arg-Trp-Orn)-NH2], in experiment [1], the Ki was determined as 35 nM. Also, in experiment [2] (setting [3]), it took 75 nM to reach a half-maximal effect (EC50) and the Emax is 23%. Besides, in experiment [2] (setting [4]), the midpoint of the response, the EC50, lay at 2 nM and the Emax is 94%.

With `CC(=O)N[C@@H](CCCNC(=N)N)C(=O)N[C@H]1CCC(=O)NCCC[C@@H](C(N)=O)NC(=O)[C@H](Cc2c[nH]c3ccccc23)NC(=O)[C@H](CCCNC(=N)N)NC(=O)[C@@H](Cc2cccc([N+](=O)[O-])c2)NC(=O)[C@H](CCN)NC1=O` [Example 23, Ac-Arg-cyclo(Glu-Dab-D-Phe(3-NO2)-Arg-Trp-Orn)-NH2], the Ki in experiment [1] was 0.7 nM. Further, in experiment [2] (setting [3]), it took 2 nM to reach a half-maximal effect (EC50) and the Emax was found to be 17%. Moreover, in experiment [2] (setting [4]), the EC50 came out at 0.55 nM and the Emax turned out to be 95%.

For `CC(=O)N[C@@H](CCCNC(=N)N)C(=O)N[C@H]1CCC(=O)NCCC[C@@H](C(N)=O)NC(=O)[C@H](Cc2c[nH]c3ccccc23)NC(=O)[C@H](CCCNC(=N)N)NC(=O)[C@@H](Cc2cc(F)cc(F)c2)NC(=O)[C@H](CCN)NC1=O` [Example 17, Ac-Arg-cyclo(Glu-Dab-D-Phe(3,5-diF)-Arg-Trp-Orn)-NH2], the Ki in experiment [1] turned out to be 2 nM. Besides, the EC50 in experiment [2] (setting [3]) was 0.95 nM; in experiment [2] (setting [4]), 0.12 nM. Besides, the values for the Emax in experiment [2] (setting [3]) and in experiment [2] (setting [4]) were 64% and 95%, respectively.

Take `CC(=O)N[C@@H](CCCNC(=N)N)C(=O)N[C@H]1CCCNC(=O)CC[C@@H](C(N)=O)NC(=O)[C@H](Cc2c[nH]c3ccccc23)NC(=O)[C@H](CCCNC(=N)N)NC(=O)[C@@H](Cc2ccc(C#N)cc2)NC(=O)[C@H](CC(N)=O)NC1=O` [Example 91, Ac-Arg-cyclo(Orn-Asn-D-Phe(4-CN)-Arg-Trp-Glu)-NH2]: the inhibitory constant (Ki) in experiment [1] amounted to 4 nM. In experiment [2] (setting [3]), the concentration for a half-maximal effect (EC50) was determined as 1 nM and the Emax was determined as 18%. Also, in experiment [2] (setting [4]), the concentration for a half-maximal effect (EC50) is 0.265 nM and the Emax stood at 96%.
